According to patent US20230203041A1, “ANTAGONISTS OF THE ADENOSINE A2A RECEPTOR” (AdoRx Therapeutics Limited, priority 2020, published 2023):
Where a name gives a salt, the structure may show the parent alone.

Key:
[1] = target: T1, human Adenosine A3 receptor (Homo sapiens, UniProt P0DMS8); assay: Adenosine receptor TR-FRET binding assay (CA200645 displacement), A3
T1 sequence (P0DMS8 1-318): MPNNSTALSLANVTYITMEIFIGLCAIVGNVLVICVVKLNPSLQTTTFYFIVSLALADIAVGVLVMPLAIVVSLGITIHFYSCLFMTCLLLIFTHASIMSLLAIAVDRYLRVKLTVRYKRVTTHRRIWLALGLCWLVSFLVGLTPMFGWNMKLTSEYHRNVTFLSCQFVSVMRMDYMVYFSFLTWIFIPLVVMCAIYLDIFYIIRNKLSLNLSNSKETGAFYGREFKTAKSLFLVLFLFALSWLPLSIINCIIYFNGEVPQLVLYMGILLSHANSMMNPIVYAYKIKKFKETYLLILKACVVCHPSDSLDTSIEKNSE

[2] = target: T2, human Adenosine A2b receptor (Homo sapiens, UniProt P29275); assay: Adenosine receptor TR-FRET binding assay (CA200645 displacement), A2b; conditions: 30 nM CA200645, CHO cell membranes, 2 hours at room temperature
T2 construct: expressed in transfected cells; host or cells: CHO cell membranes
T2 sequence (P29275 1-332): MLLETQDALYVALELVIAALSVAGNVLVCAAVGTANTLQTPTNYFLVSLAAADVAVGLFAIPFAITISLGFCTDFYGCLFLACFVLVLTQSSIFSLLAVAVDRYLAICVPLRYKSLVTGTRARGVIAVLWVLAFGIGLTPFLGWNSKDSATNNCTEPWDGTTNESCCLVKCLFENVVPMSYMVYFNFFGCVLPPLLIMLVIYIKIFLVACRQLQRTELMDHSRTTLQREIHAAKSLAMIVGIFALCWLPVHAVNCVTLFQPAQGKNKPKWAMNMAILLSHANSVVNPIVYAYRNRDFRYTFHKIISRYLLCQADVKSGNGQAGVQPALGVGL

[3] = target: T3, human Adenosine A1 receptor (Homo sapiens, UniProt P30542); assay: Adenosine receptor TR-FRET binding assay (CA200645 displacement), A1
T3 sequence (P30542 1-326): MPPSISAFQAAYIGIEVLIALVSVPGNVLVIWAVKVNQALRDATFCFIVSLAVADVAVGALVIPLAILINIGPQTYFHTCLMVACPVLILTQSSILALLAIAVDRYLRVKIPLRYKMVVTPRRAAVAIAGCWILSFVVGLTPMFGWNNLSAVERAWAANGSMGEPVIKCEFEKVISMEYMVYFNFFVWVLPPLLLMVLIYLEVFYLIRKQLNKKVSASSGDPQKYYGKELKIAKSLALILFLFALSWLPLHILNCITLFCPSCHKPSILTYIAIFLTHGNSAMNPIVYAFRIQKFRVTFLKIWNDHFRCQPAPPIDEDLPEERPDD

[4] = target: T4, human Adenosine A2a receptor (Homo sapiens, UniProt P29274); assay: Adenosine receptor TR-FRET binding assay (CA200645 displacement), A2a; conditions: 100 nM CA200645, CHO cell membranes, 2 hours at room temperature
T4 construct: expressed in transfected cells; host or cells: CHO cell membranes
T4 sequence (P29274 whole entry): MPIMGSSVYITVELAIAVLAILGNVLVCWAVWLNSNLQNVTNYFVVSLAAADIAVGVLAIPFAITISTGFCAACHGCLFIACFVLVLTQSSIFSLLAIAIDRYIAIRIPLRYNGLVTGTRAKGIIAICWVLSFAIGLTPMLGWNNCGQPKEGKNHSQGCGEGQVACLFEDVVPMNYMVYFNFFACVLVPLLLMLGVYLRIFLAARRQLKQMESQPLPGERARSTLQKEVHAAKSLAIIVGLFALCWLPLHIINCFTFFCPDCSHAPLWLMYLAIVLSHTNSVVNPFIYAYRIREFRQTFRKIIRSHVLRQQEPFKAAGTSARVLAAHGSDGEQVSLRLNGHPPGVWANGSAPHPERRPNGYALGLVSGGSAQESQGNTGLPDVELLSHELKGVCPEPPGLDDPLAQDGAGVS

| Compound | Ki [1] [nM] | Ki [2] [nM] | Ki [3] [nM] | Ki [4] [nM] |
| --- | --- | --- | --- | --- |
| Cc1cc(-c2c(-c3cccc(C#N)c3)nn3ccc(C(=O)N[C@@H]4COC[C@H]4O)nc23)cc(C)n1 [Example 92.31] | > 1000 | 57 | 333 | 2.1 |
| Cc1cc(-c2c(-c3cccc(C#N)c3)nn3ccc(C(=O)NC(C)C4(O)COC4)nc23)cc(C)n1 (centres unmarked) [Example 92.6] | > 1000 | 22 | 167 | 0.7 |
| N#Cc1c(-c2ccco2)nn2ccc(N)nc12 [Example 49, 5-Amino-2-(2-furyl)pyrazolo[1,5-a]pyrimidine-3-carbonitrile] | 3960 | 2220 | 172 | 147 |
| Cc1cc(-c2c(-c3cccc(C#N)c3)nn3ccc(NC[C@@H]4COCCN4)nc23)cc(Cl)n1 [Example 4.1] | > 1000 | 163 | 522 | 38.5 |
| CCn1nccc1-c1c(-c2cccc(C#N)c2)nn2ccc(N3CCS(=N)(=O)CC3)nc12 [Example 33.7] | > 1000 | 416 | 1800 | 440 |
| OCc1c(-c2ccco2)nn2ccc(NCc3ccccc3)nc12 [Example 75, [5-(Benzylamino)-2-(2-furyl)pyrazolo[1,5-a]pyrimidin-3-yl]methanol] | 1740 | 1460 | 1140 | 153 |
| Cc1cc(-c2c(-c3cccc(C#N)c3)nn3ccc(C(=O)NCC4(C)CCC(=O)N4)nc23)cc(C)n1 (centres unmarked) [Example 92.16] | > 1000 | 59 | 232 | 0.7 |
| C[C@@H]1CN(c2ccn3nc(-c4ccco4)c(C#N)c3n2)CCN1C(=O)OC(C)(C)C [Example 37.10, tert-butyl (2R)-4-[3-cyano-2-(2-furyl)pyrazolo[1,5-a]pyrimidin-5-yl]-2-methyl-piperazine-1-carboxylate] | 2880 | 5040 | 1760 | 76 |
| Cc1cc(-c2c(-c3ccc(F)cc3)nn3ccc(N)nc23)cc(Cl)n1 [Example 88, 3-(2-Chloro-6-methyl-4-pyridyl)-2-(4-fluorophenyl)pyrazolo[1,5-a]pyrimidin-5-amine] | 536 | 63 | 29 | 35.7 |
| Cc1cc(-c2c(-c3cccc(C#N)c3)nn3ccc(C(=O)N[C@H]4CC[C@@](C)(O)CC4)nc23)cc(C)n1 [Example 92.23] | > 1000 | 35 | 1120 | 3.4 |
| Cc1cc(-c2c(-c3cccc(C#N)c3)nn3ccc(C(=O)NCC4(C)NC(=O)NC4=O)nc23)cc(C)n1 (centres unmarked) [Example 92.17] | > 1000 | 28 | 246 | 1.1 |
| Cc1cc(-c2c(-c3cccc(C#N)c3)nn3ccc(N4CC[C@@H](C(=O)O)C4)nc23)cc(Cl)n1 [Example 2.36] | > 1000 | 430 | 179 | 25.1 |
| Cc1cc(-c2c(-c3cccc(C#N)c3)nn3ccc(C(=O)NC4(C)CCNC4)nc23)cc(Cl)n1 (centres unmarked) [Example 7.8, 3-(2-Chloro-6-methyl-4-pyridyl)-2-(3-cyanophenyl)-N-(3-methylpyrrolidin-3-yl)pyrazolo[1,5-a]pyrimidine-5-carboxamide] | > 1000 | 10 | 160 | 2.4 |
| Cc1cc(-c2c(-c3cccc(C#N)c3)nn3ccc(NCC(N)=O)nc23)cc(Cl)n1 [Example 2.28] | > 1000 | 2 | 81 | 11.6 |
| Cc1cc(-c2c(-c3cccc(C#N)c3)nn3ccc(NC(=O)NCC(C)(C)O)nc23)cc(Cl)n1 [Example 30.1, 1-[3-(2-Chloro-6-methyl-4-pyridyl)-2-(3-cyanophenyl)pyrazolo[1,5-a]pyrimidin-5-yl]-3-(2-hydroxy-2-methyl-propyl)urea] | > 1000 | 5 | 26 | 1.3 |
| Cc1cc(-c2c(-c3cccc(C#N)c3)nn3ccc(NCC(C)(C)N)nc23)cc(Cl)n1 [Example 4.10, trifluoroacetate] | > 1000 | 12 | 43 | 3.3 |
| Cc1cc(-c2c(-c3cccc(C#N)c3)nn3ccc(CN4CCNCC4)nc23)cc(C)n1 [Example 20.1, 3-[3-(2,6-Dimethyl-4-pyridyl)-5-(piperazin-1-ylmethyl)pyrazolo[1,5-a]pyrimidin-2-yl]benzonitrile trifluoroacetate] | > 1000 | 626 | 2530 | 116 |
| Cn1nccc1-c1c(-c2ccco2)nn2ccc(NCc3ccccc3)nc12 [Example 53.1, N-benzyl-2-(2-furyl)-3-(2-methylpyrazol-3-yl)pyrazolo[1,5-a]pyrimidin-5-amine] | 174 | 129 | 34 | 48.6 |
| N#Cc1c(-c2ncco2)nn2ccc(NCc3ccccc3)nc12 [Example 57, 5-(Benzylamino)-2-oxazol-2-yl-pyrazolo[1,5-a]pyrimidine-3-carbonitrile] | 1870 | 1490 | 236 | 24.7 |
| CC(C)(C)OC(=O)N1CCC[C@H]1CNc1ccn2nc(-c3ccco3)c(C#N)c2n1 [Example 37.4] | 771 | 1750 | 38 | 29.8 |
| Cc1cc(-c2c(-c3cccc(C#N)c3)nn3ccc(N(C)C)nc23)cc(Cl)n1 [Example 23.4] | 1980 | 90 | 163 | 10.2 |
| CCN1CCC(NC(=O)Nc2ccn3nc(-c4cccc(C#N)c4)c(-c4cc(C)nc(Cl)c4)c3n2)CC1 [Example 30.2, 1-[3-(2-Chloro-6-methyl-4-pyridyl)-2-(3-cyanophenyl)pyrazolo[1,5-a]pyrimidin-5-yl]-3-(1-ethyl-4-piperidyl)urea] | > 1000 | 49 | 130 | 31.5 |
| Cc1cc(-c2c(-c3cccc(C#N)c3)nn3ccc(CN4CCOCC4)nc23)cc(Cl)n1 [Example 20, 3-[3-(2-Chloro-6-methyl-4-pyridyl)-5-(morpholinomethyl)pyrazolo[1,5-a]pyrimidin-2-yl]benzonitrile] | > 1000 | 22 | 573 | 11.6 |
| CC(C)(C)OC(=O)N1CC=C(c2ccn3nc(-c4ccco4)c(C#N)c3n2)CC1 [Example 40, tert-butyl 4-[3-cyano-2-(2-furyl)pyrazolo[1,5-a]pyrimidin-5-yl]-3,6-dihydro-2H-pyridine-1-carboxylate] | 1770 | 5500 | 1950 | 93.6 |
| Cc1cc(-c2c(-c3cccc(C#N)c3)nn3ccc(C(=O)N[C@@H](C)C(C)(C)O)nc23)cc(CO)n1 [Example 100, 2-(3-Cyanophenyl)-N-[(1S)-2-hydroxy-1,2-dimethyl-propyl]-3-[2-(hydroxymethyl)-6-methyl-4-pyridyl]pyrazolo[1,5-a]pyrimidine-5-carboxamide] | > 1000 | 28 | 64 | 0.4 |
| Cc1cc(-c2c(-c3cccc(C#N)c3)nn3ccc(NC4CCS(=O)(=O)CC4)nc23)cc(Cl)n1 [Example 2.27] | > 1000 | 43 | 317 | 10.7 |
| CCn1nccc1-c1c(-c2cccc(C#N)c2)nn2ccc(NCC(C)(C)O)nc12 [Example 33, 3-[3-(2-Ethylpyrazol-3-yl)-5-[(2-hydroxy-2-methyl-propyl)amino]pyrazolo[1,5-a]pyrimidin-2-yl]benzonitrile] | > 1000 | 28 | 118 | 13.1 |
| Cc1cc(-c2c(-c3cccc(C#N)c3)nn3ccc(O)nc23)cc(Cl)n1 [Example 2.31] | > 1000 | 70 | 551 | 15.8 |
| Cc1cc(-c2c(-c3cccc(C#N)c3)nn3ccc(N4C[C@@H]5NCCO[C@H]5C4)nc23)cc(Cl)n1 [Example 4.4] | > 1000 | 149 | 1100 | 3.2 |
